The text below walks through data of patent US7087633B2, “Method for treating perinatal asphyxia in a human or animal neonate” (Universitair Medisch Centrum, priority 2000, dated 2006).

Data set [1] deals with newborn Dutch store piglets subjected to HI. The conditions noted are these: for neurologic score / electrical brain activity (aEEG): 3 to 24 h post HI, versus PLAC, repeated ANOVA, all p<0.05; for piglets died post HI: ALLO n=10 (HI complications, 18 h), DFO n=10 (hypovolemic shock, 13 h), 2-IB n=7 (sepsis). As for the experimental part: Following anaesthesia and instrumentation 37 newborn Dutch store piglets (1–3 days old) were subjected to HI by occluding both common carotid arteries with inflatable cuffs and reducing the fraction of inspired oxygen for 60 min. MRS was performed continuously before, during and up to 3 h after start of HI and repeated at 24 h post HI. During hypoxia FiO2 was reduced>on-line=until PCr/Pi had decreased to at least 25% of baseline values. Immediately after HI the piglets received either placebo (PLAC; n=10), ALLO (20 mg/kg iv; n=10), DFO (10 mg/kg iv; n=10) or 2-IB (150 μM i.v.; n=7). Before HI and from 3 to 24 h post HI the piglets were monitored using aEEG for electrical brain activity determination. A neurologic scoring system was used ranging from 4 (normal) to 0 (flat trace). For 1H-MRS a PRESS sequence with CHESS water suppression was used to define a 1.7 ml periventricular voxel (TR 6 s, TE 144 ms, and nt=32 or 64). 31 P— MRS was done using a 4 cm-diameter surface coil for excitation and detection (TR 10 s, nt=32). Peak amplitudes of PCr, Pi, Lac and NAA were determined with time domain fitting procedures (VARPRO). Paired t-tests were used to compare measurements at 24 h versus baseline; repeated ANOVA served to monitor for trends between treatment groups.

Data set [2] deals with brain regions at risk after HI (hippocampus, cortex, striatum and cerebellum). Nature of the data set: Histological analysis and nitrotyrosylation immunohistochemistry of brain at 24 h post HI. Format: in vivo, piglet.
The next data set relates to crossbred piglets. Nature of the data set: Postnatal growth experiments in newborn piglets. Format: in vivo, piglet. The protocol: A study in newborn piglets was performed to identify the potential effects of 2-iminobiotin on postnatal growth. Data from 138 crossbred piglets (originating from 28 litters) were collected on a commercial, Dutch pig farm over the period from 21 Jul. 2001 to 6 May 2003.

A further data set concerns neuronal NOS. Conditions: injectable intraperitoneally; cited from earlier work.
Data set [3] has as its system free radical-induced brain damage in newborns. Conditions: pilot study in newborn babies and experimental studies; cited from earlier work.
Data set [4] relates to neonatal rats. The conditions noted are these: cited from earlier work.
A further data set concerns newborn piglets. Conditions: cited from earlier work.
In data set [5] the test system is neonatal rats. The conditions noted are these: cited from earlier work. This is another data set of the same source.
Where [6] appears, read: 24 h post HI versus baseline, ALLO 20 mg/kg iv, DFO 10 mg/kg iv, 2-IB 150 μM i.v.
Setting [7] is: Least Square Means, total 1.1 mg/kg in 24 h after birth, n=67.
The mark [8] stands for this setting: during the first 10 days of life, n=67.

Entries after “also recorded” stand apart in the source; their conditions may differ.

For the compound `N=C1N[C@H]2[C@H](CS[C@H]2CCCCC(=O)O)N1` [2-IB, 2-iminobiotin], in data set [1], the “neurologic score / electrical brain activity (aEEG)” value is “significant difference; also recorded: preserved electrical brain activity” and the “piglets died post HI” value is reported as 1 piglet. Also, in data set [1] (setting [6]), the Lac/NAA entry is “identical to baseline values; also recorded: prevented increment” and the “PCr/Pi (cerebral energy status)” value is on record as “identical to baseline values; also recorded: preserved completely”. The “more effective than treatment with allopurinol and/or deferoxamine” value in data set [1] (in vivo studies involving piglets, versus allopurinol and/or deferoxamine) is listed as “about 25%”. For the same compound, the “more effective than placebo treatment in preventing and/or treating the effects” value in data set [1] (in vivo studies involving piglets, versus placebo) is reported as “about 60%”. Also, in data set [2] (histology), the “alive cells in brain regions at risk after HI” value is “more alive cells”, the necrosis result is listed as “less necrosis” and the structural architecture result is reported as “better preserved structural architecture”. The “nitrotyrosylation staining in the affected areas” value in data set [2] (immunohistochemistry) is “no staining; also recorded: less nitrotyrosylation staining”. Further, in the data set with crossbred piglets (setting [7]), the “Growth at 6 weeks” value stood at 250 gram/day, the “Growth at 10 days” value is 208 gram/day and the Growth at weaning stood at 248 gram/day. For the same compound, in the data set on crossbred piglets (setting [8]), the “piglets died (number)” value came to 9 piglets and the “piglets died (percentage of group)” value was 13%. For the same compound, the “Pathology and histology: adverse effects of treatment” value with crossbred piglets (in vivo) is “no adverse effects”.
Turning to `O=[N+]([O-])c1cccc2cn[nH]c12` [7-nitroindazole], in the data set with neuronal NOS, the apoptosis entry is on record as “effective in reducing apoptosis” and the levels of citrulline entry is on record as “reducing the levels of citrulline”.
In the case of `Oc1ncnc2[nH]ncc12` [ALLO, allopurinol, reference compound], in data set [1], the “neurologic score / electrical brain activity (aEEG)” value is reported as “significant difference” and the “piglets died post HI” value worked out at 1 piglet. The “PCr/Pi (cerebral energy status)” value in data set [1] (setting [6]) is “prevented partly”. In addition, in data set [3], the “free radical-induced brain damage in newborns” value is “reduce free radical-induced brain damage in newborns to some extend”.
As to `CC(=O)N(O)CCCCCNC(=O)CCC(=O)N(O)CCCCCNC(=O)CCC(=O)N(O)CCCCCN` [DFO, deferoxamine, reference compound], in data set [1], the “piglets died post HI” value is recorded as 1 piglet.
As for `COC(=O)[C@@H](N)CCCNC(=N)N[N+](=O)[O-]` [L-NAME, L-nitro-arginine methyl ester], in the data set with neonatal rats [4], the neuroprotection result is listed as “neuroprotective”.
In the case of `N=C(NCCC[C@H](N)C(=O)O)N[N+](=O)[O-]` [NNLA, N^G-nitro-L-arginine], in the data set on newborn piglets, the “cerebral energy status during and after hypoxia-ischemia” value is listed as “compromised”.
On to `N=C(N)NN` [aminoguanidine], for which the infarct volumes entry with neonatal rats [5] is on record as “reduced infarct volumes”.
